In patent US8822468B2 (Novartis AG, priority 2008, dated 2014):

biological target: T1, cMET receptor tyrosine kinase (GST-cMET (969-1390)) (Homo sapiens, UniProt P08581); assay: EPK cMET profiling assay (LanthaScreen TR-FRET antibody based kinase phosphorylation assay); format: biochemical; settings: purified recombinant GST-cMET (969-1390), 2 μM ATP, 50 nM Fluorescein-PolyEAY, 60 minutes at room temperature; read-out: c-Met IC50
T1 construct: made in house
Outline: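 GST-cMET cytoplasmic domain (969-1390), 0.3 nM, phosphorylated 50 nM fluorescein-PolyEAY with 2 µM ATP, Mg2+/Mn2+, 0.6% DMSO, 60 min at room temperature. Stopped with EDTA; Tb-PY20 antibody TR-FRET single end-point read. Final compound concentrations 10 to 0.003 µM, 8 points.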

T1 sequence (P08581 969-1390): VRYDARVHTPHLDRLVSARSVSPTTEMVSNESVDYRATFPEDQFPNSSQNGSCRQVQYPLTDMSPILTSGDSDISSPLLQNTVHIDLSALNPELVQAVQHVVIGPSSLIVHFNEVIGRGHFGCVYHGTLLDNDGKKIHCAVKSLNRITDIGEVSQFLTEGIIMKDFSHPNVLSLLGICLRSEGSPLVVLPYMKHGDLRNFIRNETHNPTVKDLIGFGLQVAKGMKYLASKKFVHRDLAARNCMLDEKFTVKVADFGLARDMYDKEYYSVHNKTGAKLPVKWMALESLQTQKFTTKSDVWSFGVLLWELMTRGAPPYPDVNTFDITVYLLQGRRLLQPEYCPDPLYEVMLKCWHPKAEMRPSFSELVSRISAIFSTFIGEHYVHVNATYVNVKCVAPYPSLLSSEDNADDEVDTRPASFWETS

Row | SMILES | IC50
1 | O[C@H]1CCN(c2ccc3ncc(Cc4ccc5ncccc5c4)n3n2)C1 [Example 107, (S)-1-(3-Quinolin-6-ylmethyl-imidazo[1,2-b]pyridazin-6-yl)-pyrrolidin-3-ol] | 20 nM
2 | O[C@@H]1CCN(c2ccc3ncc(Cc4ccc5ncccc5c4)n3n2)C1 [Example 108, (R)-1-(3-Quinolin-6-ylmethyl-imidazo[1,2-b]pyridazin-6-yl)-pyrrolidin-3-ol] | 9.8 nM
3 | O=C1CCN(c2ccc3ncc(Cc4ccc5ncccc5c4)n3n2)CCN1 [Example 109, 1-(3-Quinolin-6-ylmethyl-imidazo[1,2-b]pyridazin-6-yl)-[1,4]diazepan-5-one] | 62 nM
4 | c1cnc2ccc(Cc3cnc4ccc(N5CCC6(CC5)OCCO6)nn34)cc2c1 [Example 110, 6-[6-(1,4-Dioxa-8-aza-spiro[4.5]dec-8-yl)-imidazo[1,2-b]pyridazin-3-ylmethyl]-quinoline] | 42 nM
5 | CC1CCCCN1c1ccc2ncc(Cc3ccc4ncccc4c3)n2n1 (centres unmarked) [Example 111, 6-[6-(2-Methyl-piperidin-1-yl)-imidazo[1,2-b]pyridazin-3-ylmethyl]-quinoline] | 340 nM
6 | Clc1cccc(Sc2ccc3ncc(Cc4ccc5ncccc5c4)n3n2)c1 [Example 112, 6-[6-(3-Chloro-phenylsulfanyl)-imidazo[1,2-b]pyridazin-3-ylmethyl]-quinoline] | 220 nM
7 | Clc1cccc(Oc2ccc3ncc(Cc4ccc5ncccc5c4)n3n2)c1 [Example 113, 6-[6-(3-Chloro-phenoxy)-imidazo[1,2-b]pyridazin-3-ylmethyl]-quinoline] | 84 nM
8 | FC(F)(F)CNc1ccc2ncc(Cc3ccc4ncccc4c3)n2n1 [Example 114, (3-Quinolin-6-ylmethyl-imidazo[1,2-b]pyridazin-6-yl)-(2,2,2-trifluoro-ethyl)-amine] | 56 nM
9 | c1cnc2ccc(Cc3cnc4ccc(-n5ccnc5)nn34)cc2c1 [Example 115, 6-(6-Imidazol-1-yl-imidazo[1,2-b]pyridazin-3-ylmethyl)-quinoline] | 95 nM
10 | Cc1nccn1-c1ccc2ncc(Cc3ccc4ncccc4c3)n2n1 [Example 116, 6-[6-(2-Methyl-imidazol-1-yl)-imidazo[1,2-b]pyridazin-3-ylmethyl]-quinoline] | 980 nM
11 | c1ccc(CN2CCC(Nc3ccc4ncc(Cc5ccc6ncccc6c5)n4n3)C2)cc1 (centres unmarked) [Example 117, (1-Benzyl-pyrrolidin-3-yl)-(3-quinolin-6-ylmethyl-imidazo[1,2-b]pyridazin-6-yl)-amine] | 630 nM
12 | Cc1cn(-c2ccc3ncc(Cc4ccc5ncccc5c4)n3n2)cn1 [Example 118, 6-[6-(4-Methyl-imidazol-1-yl)-imidazo[1,2-b]pyridazin-3-ylmethyl]-quinoline] | 220 nM
13 | O=C1CCN(c2ccc3ncc(Cc4ccc5ncccc5c4)n3n2)CC1 [Example 120, 1-(3-Quinolin-6-ylmethyl-imidazo[1,2-b]pyridazin-6-yl)-piperidin-4-one] | 69 nM
14 | Clc1cccc(Nc2ccc3ncc(Cc4ccc5ncccc5c4)n3n2)c1 [Example 121, (3-Chloro-phenyl)-(3-quinolin-6-ylmethyl-imidazo[1,2-b]pyridazin-6-yl)-amine] | 20 nM
15 | c1ccc(Nc2ccc3ncc(Cc4ccc5ncccc5c4)n3n2)cc1 [Example 122, Phenyl-(3-quinolin-6-ylmethyl-imidazo[1,2-b]pyridazin-6-yl)-amine] | 73 nM
16 | CCOc1ccc2ncc(Cc3ccc4ncccc4c3)n2n1 [Example 123, 6-(6-ethoxy-imidazo[1,2-b]pyridazin-3-ylmethyl)-quinoline] | 87 nM

Row | SMILES | IC50
17 | F[C@@H]1CCN(c2ccc3ncc(Cc4ccc5ncccc5c4)n3n2)C1 [Example 124, 6-[6-((R)-3-fluoro-pyrrolidin-1-yl)-imidazo[1,2-b]pyridazin-3-ylmethyl]-quinoline] | 180 nM
18 | F[C@H]1CCN(c2ccc3ncc(Cc4ccc5ncccc5c4)n3n2)C1 [Example 125, 6-[6-((S)-3-Fluoro-pyrrolidin-1-yl)-imidazo[1,2-b]pyridazin-3-ylmethyl]-quinoline] | 130 nM
19 | c1cnc2ccc(Cc3cnc4ccc(Nc5ccc(CN6CCCCC6)cc5)nn34)cc2c1 [Example 126, (4-Piperidin-1-ylmethyl-phenyl)-(3-quinolin-6-ylmethyl-imidazo[1,2-b]pyridazin-6-yl)-amine] | 16 nM
20 | FC(F)(F)c1cccc(Nc2ccc3ncc(Cc4ccc5ncccc5c4)n3n2)c1 [Example 127, (3-Quinolin-6-ylmethyl-imidazo[1,2-b]pyridazin-6-yl)-(3-trifluoromethyl-phenyl)-amine] | 90 nM
21 | Clc1ccccc1Nc1ccc2ncc(Cc3ccc4ncccc4c3)n2n1 [Example 128, (2-Chloro-phenyl)-(3-quinolin-6-ylmethyl-imidazo[1,2-b]pyridazin-6-yl)-amine] | 29 nM
22 | c1cncc(Nc2ccc3ncc(Cc4ccc5ncccc5c4)n3n2)c1 [Example 129, Pyridin-3-yl-(3-quinolin-6-ylmethyl-imidazo[1,2-b]pyridazin-6-yl)-amine] | 69 nM
23 | c1cnc2ccc(Cc3cnc4ccc(Nc5ccncn5)nn34)cc2c1 [Example 131, Pyrimidin-4-yl-(3-quinolin-6-ylmethyl-imidazo[1,2-b]pyridazin-6-yl)-amine] | 180 nM
24 | CCn1nccc1Nc1ccc2ncc(Cc3ccc4ncccc4c3)n2n1 [Example 132, (2-Ethyl-2H-pyrazol-3-yl)-(3-quinolin-6-ylmethyl-imidazo[1,2-b]pyridazin-6-yl)-amine] | 50 nM
25 | c1cnc2ccc(Cc3cnc4ccc(-n5cccn5)nn34)cc2c1 [Example 134, 6-(6-Pyrazol-1-yl-imidazo[1,2-b]pyridazin-3-ylmethyl)-quinoline] | 570 nM
26 | Clc1cccc(Nc2ccc3ncc(Cc4ccc5ncccc5c4)n3n2)c1Cl [Example 136, (2,3-Dichloro-phenyl)-(3-quinolin-6-ylmethyl-imidazo[1,2-b]pyridazin-6-yl)-amine] | 350 nM
27 | Fc1ccc(Nc2ccc3ncc(Cc4ccc5ncccc5c4)n3n2)cc1Cl [Example 137, (3-Chloro-4-fluoro-phenyl)-(3-quinolin-6-ylmethyl-imidazo[1,2-b]pyridazin-6-yl)-amine] | 100 nM
28 | CN(c1cccc(Cl)c1)c1ccc2ncc(Cc3ccc4ncccc4c3)n2n1 [Example 138, (3-Chloro-phenyl)-methyl-(3-quinolin-6-ylmethyl-imidazo[1,2-b]pyridazin-6-yl)-amine] | 960 nM
29 | CS(=O)(=O)c1cccc(Nc2ccc3ncc(Cc4ccc5ncccc5c4)n3n2)c1 [Example 139, (3-Methanesulfonyl-phenyl)-(3-quinolin-6-ylmethyl-imidazo[1,2-b]pyridazin-6-yl)-amine] | 130 nM
30 | COc1cccc(Nc2ccc3ncc(Cc4ccc5ncccc5c4)n3n2)c1 [Example 140, (3-Methoxy-phenyl)-(3-quinolin-6-ylmethyl-imidazo[1,2-b]pyridazin-6-yl)-amine] | 310 nM
31 | [2H]C([2H])(c1ccc2ncccc2c1)c1cnc2ccc(Cl)nn12 [Example 142, 6-[(6-Chloro-imidazo[1,2-b]pyridazin-3-yl)-dideutero-methyl]-quinoline] | 210 nM
32 | [2H]C([2H])(c1ccc2ncccc2c1)c1cnc2ccc(-c3cnn(C)c3)nn12 [Example 143, 6{Dideutero-[6-(1-methyl-1H-pyrazol-4-yl)-imidazo[1,2-b]pyridazin-3-ylmethyl]}-quinoline] | 44 nM
